Test results: PMC4457528, “Identification of Novel Small Molecule Inhibitors of Oncogenic RET Kinase” (PLoS ONE, 2015)
Like-named read-outs stand apart in the source and are kept apart here.

What was measured:
[1] = test system: MZ-CRC-1 cells; test: Growth curves, MZ-CRC-1 medullary thyroid carcinoma cells (RET/M918T); type: cell-based; conditions: Homo sapiens, 10% serum, 95% CI in brackets, read-out: Growth inhibition IC50 dose MZ-CRC-1
Experimental: TT human cell line was obtained in 2002 from ATCC and authenticated by RET genotyping; it was derived from a MTC and harbors a cysteine 634 to tryptophan (C634W) RET mutation. TT cells were grown in RPMI 1640 supplemented with 20% fetal calf serum (GIBCO). MZ-CRC-1 human cells were kindly provided in 2009 by Robert F. Gagel (MD Anderson, Houston, TX) and authenticated by RET genotyping. […] Nthy-ori 3–1, a human thyroid follicular epithelial cell line immortalized by the SV40 large T gene, was obtained from European Collection of Cell Cultures (ECACC) (Wiltshire, UK) in 2010.
To compare cell growth, we performed unpaired Student’s t test using the Instat software program (Graphpad Software Inc). P values were two-sided, and differences were considered statistically significant at P <.02. IC50 doses were calculated through a curve fitting analysis from last day values using the PRISM software program (Graphpad Software Inc).

[2] = molecular target: T1, VEGFRII (Homo sapiens, UniProt P35968); test: Western blot of VEGFRII phosphorylation in TT cells; type: cell-based; conditions: 2 hr, Western blotting
T1 construct: endogenous in cells; host or cells: TT human medullary thyroid carcinoma cells
T1 sequence (P35968 20-1356): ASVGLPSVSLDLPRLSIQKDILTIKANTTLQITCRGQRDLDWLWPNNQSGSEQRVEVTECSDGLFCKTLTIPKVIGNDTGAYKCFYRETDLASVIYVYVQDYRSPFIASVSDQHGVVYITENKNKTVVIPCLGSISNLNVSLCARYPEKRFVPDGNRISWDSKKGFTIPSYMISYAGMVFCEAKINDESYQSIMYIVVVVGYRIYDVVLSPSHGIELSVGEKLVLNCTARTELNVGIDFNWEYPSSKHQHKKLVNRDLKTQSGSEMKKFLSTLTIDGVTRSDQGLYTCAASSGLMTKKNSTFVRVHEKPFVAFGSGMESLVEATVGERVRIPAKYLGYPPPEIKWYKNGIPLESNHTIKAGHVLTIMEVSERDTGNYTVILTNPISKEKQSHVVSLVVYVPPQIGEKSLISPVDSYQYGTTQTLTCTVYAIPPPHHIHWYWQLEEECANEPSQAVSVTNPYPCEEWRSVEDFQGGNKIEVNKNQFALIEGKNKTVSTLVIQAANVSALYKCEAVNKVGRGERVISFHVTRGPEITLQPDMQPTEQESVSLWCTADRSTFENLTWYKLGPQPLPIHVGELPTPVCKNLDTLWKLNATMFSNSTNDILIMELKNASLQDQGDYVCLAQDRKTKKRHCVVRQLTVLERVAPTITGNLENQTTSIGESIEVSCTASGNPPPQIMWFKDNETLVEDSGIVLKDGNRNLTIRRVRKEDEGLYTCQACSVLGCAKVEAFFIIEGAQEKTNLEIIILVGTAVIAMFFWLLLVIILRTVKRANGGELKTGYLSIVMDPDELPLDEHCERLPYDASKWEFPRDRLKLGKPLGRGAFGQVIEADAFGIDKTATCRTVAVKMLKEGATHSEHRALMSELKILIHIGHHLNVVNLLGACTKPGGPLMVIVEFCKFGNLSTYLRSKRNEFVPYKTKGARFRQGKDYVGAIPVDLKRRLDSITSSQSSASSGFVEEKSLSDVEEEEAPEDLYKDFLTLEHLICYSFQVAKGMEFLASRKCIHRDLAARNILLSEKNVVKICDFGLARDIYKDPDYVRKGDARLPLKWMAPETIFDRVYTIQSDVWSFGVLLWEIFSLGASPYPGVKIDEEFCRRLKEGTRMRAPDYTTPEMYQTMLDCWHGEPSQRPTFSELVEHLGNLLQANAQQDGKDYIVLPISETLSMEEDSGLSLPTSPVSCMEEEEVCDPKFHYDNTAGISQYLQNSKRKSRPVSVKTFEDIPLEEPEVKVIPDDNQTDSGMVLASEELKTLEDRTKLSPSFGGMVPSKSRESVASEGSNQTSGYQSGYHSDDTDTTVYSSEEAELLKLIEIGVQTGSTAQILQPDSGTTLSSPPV
Experimental: Protein lysates were prepared according to standard procedures. Briefly, cells were lysed in a buffer containing 50 mM N-2-hydroxyethylpiperazine-N'-2-ethanesulfonic acid (HEPES; pH 7.5), 1% (vol/vol) Triton X-100, 150 mM NaCl, 5 mM EGTA, 50 mM NaF, 20 mM sodium pyrophosphate, 1 mM sodium vanadate, 2 mM phenylmethylsulphonyl fluoride (PMSF) and 1 μg/ml aprotinin. Lysates were clarified by centrifugation at 10,000 Xg for 15 min. […] Immune complexes were detected with the enhanced chemiluminescence kit (Amersham Pharmacia Biotech, Little Chalfort, UK). Signal intensity was analyzed at the Phosphorimager (Typhoon 8600, Amersham Pharmacia Biotech) interfaced with the ImageQuant software. Anti-phospho-SHC (#07206), that recognizes SHC proteins when phosphorylated on Y317 was from Merck Millipore (Darmstadt, Germany). Anti-MAPK (#4695) and anti-phospho-MAPK (#4370), specific for p44/42MAPK (ERK1/2) phosphorylated on Thr202/Tyr204, anti-VEGFRII (#2479) and anti-phospho-VEGFRII (#2478), that recognizes VEGF Receptor 2 when phosphorylated on Y1175, were from Cell Signaling (Beverly, MA).
VEGFRII inhibition is believed to contribute, based on its anti-angiogenic effect, to clinical activity of approved RET inhibitors such as vandetanib and cabozantinib.
The blots were normalized using anti-VEGFRII (αVEGFRII) antibody. (JPG) Click here for additional data file.

[3] = molecular target: T2, KinomeScan kinase panel (Homo sapiens, UniProt O15111); test: KinomeScan kinase panel, single concentration 10 µM; type: binding; conditions: IKK-alpha, 10 µM; read-out: score (%)
T2 construct: purchased DiscoveRx (KinomeScan)
T2 sequence (O15111 1-745): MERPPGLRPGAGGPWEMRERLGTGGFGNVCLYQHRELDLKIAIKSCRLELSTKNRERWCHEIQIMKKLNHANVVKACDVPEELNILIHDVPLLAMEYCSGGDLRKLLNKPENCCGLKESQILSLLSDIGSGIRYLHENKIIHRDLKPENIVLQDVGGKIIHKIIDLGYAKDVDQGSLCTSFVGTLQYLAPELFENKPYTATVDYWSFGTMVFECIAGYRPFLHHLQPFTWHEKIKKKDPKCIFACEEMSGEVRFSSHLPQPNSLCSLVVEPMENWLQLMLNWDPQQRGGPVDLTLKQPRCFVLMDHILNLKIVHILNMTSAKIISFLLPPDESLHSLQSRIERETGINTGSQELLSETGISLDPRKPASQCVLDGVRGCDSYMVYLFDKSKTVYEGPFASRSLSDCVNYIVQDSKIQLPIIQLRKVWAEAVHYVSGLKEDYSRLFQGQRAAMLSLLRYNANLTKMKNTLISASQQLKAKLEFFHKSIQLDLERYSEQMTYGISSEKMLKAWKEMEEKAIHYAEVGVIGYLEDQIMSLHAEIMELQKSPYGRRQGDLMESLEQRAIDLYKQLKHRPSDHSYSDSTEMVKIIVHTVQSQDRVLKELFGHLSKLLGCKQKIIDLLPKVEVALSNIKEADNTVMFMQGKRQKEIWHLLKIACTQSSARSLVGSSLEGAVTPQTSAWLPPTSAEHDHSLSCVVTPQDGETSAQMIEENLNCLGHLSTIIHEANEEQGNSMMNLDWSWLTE

[4] = molecular target: T3, KinomeScan kinase panel (Homo sapiens, UniProt O15197); test: as above; type: binding; conditions: EPHB6, 10 µM; read-out: score (%)
T3 construct: purchased DiscoveRx (KinomeScan)

[5] = molecular target: T4, KinomeScan kinase panel (Homo sapiens, UniProt O76039); test: as above; type: binding; conditions: CDKL5, 10 µM; read-out: score (%)
T4 construct: purchased DiscoveRx (KinomeScan)

[6] = molecular target: T5, KinomeScan kinase panel (Homo sapiens, UniProt P06239); test: as above; type: binding; conditions: LCK, 10 µM; read-out: score (%)
T5 construct: purchased DiscoveRx (KinomeScan)
T5 sequence (P06239 whole entry): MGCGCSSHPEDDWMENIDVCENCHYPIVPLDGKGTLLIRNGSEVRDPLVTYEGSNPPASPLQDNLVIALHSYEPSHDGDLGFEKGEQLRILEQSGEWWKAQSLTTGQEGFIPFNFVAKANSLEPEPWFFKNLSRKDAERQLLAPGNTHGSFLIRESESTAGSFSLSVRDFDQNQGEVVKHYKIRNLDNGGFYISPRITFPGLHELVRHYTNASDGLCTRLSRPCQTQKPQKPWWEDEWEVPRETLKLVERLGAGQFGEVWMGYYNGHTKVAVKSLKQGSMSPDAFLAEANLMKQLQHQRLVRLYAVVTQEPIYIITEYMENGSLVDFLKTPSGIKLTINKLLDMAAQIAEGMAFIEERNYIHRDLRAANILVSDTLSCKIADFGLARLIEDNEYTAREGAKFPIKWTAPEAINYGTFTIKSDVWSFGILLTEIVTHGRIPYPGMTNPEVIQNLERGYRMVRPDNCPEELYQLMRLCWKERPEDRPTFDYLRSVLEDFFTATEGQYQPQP

[7] = molecular target: T6, KinomeScan kinase panel (Homo sapiens, UniProt P42679); test: as above; type: binding; conditions: CTK, 10 µM; read-out: score (%)
T6 construct: purchased DiscoveRx (KinomeScan)

[8] = molecular target: T7, KinomeScan kinase panel (Homo sapiens, UniProt Q13464); test: as above; type: binding; conditions: read-out: score (%)
T7 construct: purchased DiscoveRx (KinomeScan)

[9] = molecular target: T8, KinomeScan kinase panel (Homo sapiens, UniProt Q52WX2); test: as above; type: binding; conditions: kinase SBK1; 10 µM; read-out: score (%)
T8 construct: purchased DiscoveRx (KinomeScan)
T8 sequence (Q52WX2 whole entry): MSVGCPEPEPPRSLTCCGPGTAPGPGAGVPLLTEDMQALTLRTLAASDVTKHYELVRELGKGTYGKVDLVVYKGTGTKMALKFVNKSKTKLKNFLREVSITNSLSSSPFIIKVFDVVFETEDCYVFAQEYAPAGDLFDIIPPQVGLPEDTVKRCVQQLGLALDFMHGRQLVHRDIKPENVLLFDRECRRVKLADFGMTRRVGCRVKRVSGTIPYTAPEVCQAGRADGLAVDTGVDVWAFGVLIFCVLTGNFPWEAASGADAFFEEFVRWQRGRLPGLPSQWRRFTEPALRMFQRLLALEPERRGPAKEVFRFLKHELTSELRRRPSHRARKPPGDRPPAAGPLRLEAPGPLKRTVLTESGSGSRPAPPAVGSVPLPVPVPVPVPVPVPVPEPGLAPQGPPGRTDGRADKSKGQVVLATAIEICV

[10] = molecular target: T9, KinomeScan kinase panel (Homo sapiens, UniProt Q6DT37); test: as above; type: binding; conditions: DMPK2, 10 µM; read-out: score (%)
T9 construct: purchased DiscoveRx (KinomeScan)
T9 sequence (Q6DT37 whole entry): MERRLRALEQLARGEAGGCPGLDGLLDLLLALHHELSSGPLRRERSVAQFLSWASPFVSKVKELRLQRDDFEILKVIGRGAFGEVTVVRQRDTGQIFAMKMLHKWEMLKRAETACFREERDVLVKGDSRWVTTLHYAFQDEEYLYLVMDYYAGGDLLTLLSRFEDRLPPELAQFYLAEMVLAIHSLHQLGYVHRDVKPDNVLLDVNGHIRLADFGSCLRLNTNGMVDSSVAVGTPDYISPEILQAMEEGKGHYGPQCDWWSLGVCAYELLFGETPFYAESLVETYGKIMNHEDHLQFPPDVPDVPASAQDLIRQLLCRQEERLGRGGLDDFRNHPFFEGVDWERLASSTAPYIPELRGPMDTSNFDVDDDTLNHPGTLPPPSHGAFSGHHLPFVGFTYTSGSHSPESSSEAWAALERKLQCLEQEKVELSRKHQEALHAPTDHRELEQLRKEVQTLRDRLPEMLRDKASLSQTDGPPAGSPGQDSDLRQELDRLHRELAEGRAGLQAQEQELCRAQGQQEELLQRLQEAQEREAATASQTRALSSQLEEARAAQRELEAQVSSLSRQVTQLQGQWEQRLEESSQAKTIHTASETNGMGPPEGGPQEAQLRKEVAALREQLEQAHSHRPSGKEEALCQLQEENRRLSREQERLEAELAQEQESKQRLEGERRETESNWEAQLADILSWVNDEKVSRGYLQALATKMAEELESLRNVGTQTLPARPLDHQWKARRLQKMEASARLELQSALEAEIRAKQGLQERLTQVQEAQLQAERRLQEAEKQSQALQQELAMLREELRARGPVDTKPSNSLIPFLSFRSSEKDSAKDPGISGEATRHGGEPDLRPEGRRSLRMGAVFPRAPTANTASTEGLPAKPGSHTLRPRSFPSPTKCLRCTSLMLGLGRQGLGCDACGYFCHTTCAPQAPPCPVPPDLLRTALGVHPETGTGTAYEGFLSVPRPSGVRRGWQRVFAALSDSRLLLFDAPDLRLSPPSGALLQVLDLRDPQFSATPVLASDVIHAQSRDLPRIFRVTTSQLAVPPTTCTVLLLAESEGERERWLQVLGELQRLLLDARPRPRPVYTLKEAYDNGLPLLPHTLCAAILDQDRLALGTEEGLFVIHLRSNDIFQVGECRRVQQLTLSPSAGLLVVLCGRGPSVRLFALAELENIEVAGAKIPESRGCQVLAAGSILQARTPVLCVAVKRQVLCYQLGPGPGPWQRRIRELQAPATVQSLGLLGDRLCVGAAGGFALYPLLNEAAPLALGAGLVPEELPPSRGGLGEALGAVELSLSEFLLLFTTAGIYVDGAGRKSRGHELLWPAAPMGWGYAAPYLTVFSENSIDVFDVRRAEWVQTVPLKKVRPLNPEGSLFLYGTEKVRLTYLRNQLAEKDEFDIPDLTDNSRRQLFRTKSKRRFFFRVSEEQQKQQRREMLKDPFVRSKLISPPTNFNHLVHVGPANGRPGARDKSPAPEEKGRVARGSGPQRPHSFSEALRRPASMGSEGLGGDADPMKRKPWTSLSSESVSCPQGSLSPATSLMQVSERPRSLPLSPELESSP

[11] = molecular target: T10, KinomeScan kinase panel (Homo sapiens, UniProt Q9NYY3); test: as above; type: binding
T10 construct: purchased DiscoveRx (KinomeScan)

[12] = molecular target: T11, KinomeScan kinase panel (Homo sapiens, UniProt Q9UBF8); test: as above; type: binding; conditions: PIK4CB, 10 µM; read-out: score (%)
T11 construct: purchased DiscoveRx (KinomeScan)

[13] = molecular target: T12, KinomeScan kinase panel (Homo sapiens, UniProt Q9UPE1); test: as above; type: binding; conditions: read-out: score (%)
T12 construct: purchased DiscoveRx (KinomeScan)
T12 sequence (Q9UPE1 whole entry): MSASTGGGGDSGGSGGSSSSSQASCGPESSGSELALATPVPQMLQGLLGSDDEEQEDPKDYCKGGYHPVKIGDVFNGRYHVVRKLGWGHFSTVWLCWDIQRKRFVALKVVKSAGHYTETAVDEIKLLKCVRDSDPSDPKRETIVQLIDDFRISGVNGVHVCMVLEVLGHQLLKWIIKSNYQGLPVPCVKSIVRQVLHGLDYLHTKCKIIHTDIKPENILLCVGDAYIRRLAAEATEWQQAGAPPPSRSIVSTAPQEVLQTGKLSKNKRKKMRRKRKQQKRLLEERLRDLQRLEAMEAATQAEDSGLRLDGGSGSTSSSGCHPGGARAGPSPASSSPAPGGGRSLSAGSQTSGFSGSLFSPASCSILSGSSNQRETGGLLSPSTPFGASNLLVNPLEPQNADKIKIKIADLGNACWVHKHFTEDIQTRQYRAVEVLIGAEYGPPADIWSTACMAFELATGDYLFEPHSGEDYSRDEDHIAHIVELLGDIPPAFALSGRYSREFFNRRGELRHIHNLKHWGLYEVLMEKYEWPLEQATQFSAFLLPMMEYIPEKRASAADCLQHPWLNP

[14] = molecular target: T13, KinomeScan kinase panel (Homo sapiens, UniProt Q9Y2H1); test: as above; type: binding; conditions: NDR2, 10 µM; read-out: score (%)
T13 construct: purchased DiscoveRx (KinomeScan)
T13 sequence (Q9Y2H1 whole entry): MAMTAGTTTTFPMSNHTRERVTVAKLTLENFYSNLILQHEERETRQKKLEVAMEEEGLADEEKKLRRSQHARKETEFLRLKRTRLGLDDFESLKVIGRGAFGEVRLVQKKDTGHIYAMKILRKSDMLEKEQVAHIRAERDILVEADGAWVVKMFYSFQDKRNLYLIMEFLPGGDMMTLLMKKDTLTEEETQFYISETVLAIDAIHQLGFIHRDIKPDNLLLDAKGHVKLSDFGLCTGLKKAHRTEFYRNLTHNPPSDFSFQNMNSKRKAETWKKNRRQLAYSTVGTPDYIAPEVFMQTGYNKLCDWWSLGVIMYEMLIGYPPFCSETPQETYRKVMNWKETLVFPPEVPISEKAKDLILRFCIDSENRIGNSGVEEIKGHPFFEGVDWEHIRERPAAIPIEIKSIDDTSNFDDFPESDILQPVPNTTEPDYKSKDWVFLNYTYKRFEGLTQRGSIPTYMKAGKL

[15] = test system: RET/C634Y; conditions: 10 nM, 2 hr, NIH3T3, Western blotting, data not shown

Compound | IC50 [1] [nM] | inhibition of VEGFRII phosphorylation in living TT cells [2] | remaining binding at 10 µM [3] [%] | remaining binding at 10 µM [4] [%] | remaining binding at 10 µM [5] [%] | remaining binding at 10 µM [6] [%] | remaining binding at 10 µM [7] [%] | remaining binding at 10 µM ([8]; ROCK1, 10 µM) [%] | remaining binding at 10 µM [9] [%] | remaining binding at 10 µM [10] [%] | score (%) ([11]; PLK2, 10 µM) | remaining binding at 10 µM [12] [%] | remaining binding at 10 µM ([13]; kinase SRPK3, 10 µM) [%] | remaining binding at 10 µM [14] [%] | inhibition of RET/C634Y protein [15] [%] | remaining binding at 10 µM ([8]; kinase ROCK1, 10 µM) [%] | score (%) ([11]; kinase PLK2, 10 µM) | remaining binding at 10 µM ([13]; SRPK3, 10 µM) [%]
CCN1CCN(Cc2ccc(NC(=O)c3ccc(C)c(NC(=O)c4cncc(-c5cccs5)c4)c3)cc2C(F)(F)F)CC1 [ALW-II-41-27] | 2 | able to inhibit | 3.3 | 1.2 | > 30 | 0.2 | > 30 | 0 | > 30 | > 30 | nb (Hits values higher than 30% were considered negative (no binding: nb)) | > 30 | > 30 | 11 | > 30 | – | – | –
CCN1CCN(Cc2ccc(NC(=O)c3ccc(C)c(C#Cc4cccnc4)c3)cc2C(F)(F)F)CC1 [XMD15-44] | 4.2 | able to inhibit | 0 | 8.8 | 12 | 0.05 | > 30 | – | 88 | > 30 | – | 100 | 45 | 8.7 | > 30 | 43 | 100 | –
CCN1CCN(Cc2ccc(NC(=O)c3ccc(C)c(/C=C/c4cnc5[nH]ccc5c4Cl)c3)cc2C(F)(F)F)CC1 [HG-6-63-01, (E)-3-(2-(4-chloro-1H-pyrrolo[2,3-b]pyridin-5-yl)vinyl)-N-(4-((4-ethylpiperazin-1-yl)methyl)-3-(trifluoromethyl)phenyl)-4-methylbenzamide] | 1 | able to inhibit | 0.75 | – | – | 0.1 | – | – | – | 14 | – | – | – | > 30 | > 30 | – | – | 22
